Values quoted from earlier work as cited in US20080280861A1, “Method of Female Contraception and a Kit For Use Therein” (PANTARHEI BIOSCIENCE B.V., priority 2004, published 2008).

Details: relative to levonorgestrel dosage; known in the art

**Q.** For C#C[C@]1(OC(C)=O)CC[C@H]2[C@@H]3CCC4=CC(=NO)CC[C@@H]4[C@H]3CC[C@@]21CC (mixture of isomers) [Norgestimate], which Conversion factor is on record?
**A.** 1.7

**Q.** For C[C@]12CCC(=O)C=C1[C@@H]1C[C@@H]1[C@H]1[C@@H]3[C@@H]4C[C@@H]4[C@@]4(CCC(=O)O4)[C@@]3(C)CC[C@@H]12 [Drospirenone], which Conversion factor is on record?
**A.** 20

**Q.** For CC(=O)[C@H]1CC[C@H]2[C@@H]3C=CC4=CC(=O)CC[C@@]4(C)[C@@H]3CC[C@]12C [Dydrogesterone], which Conversion factor is on record?
**A.** 133

**Q.** Which Conversion factor does the source give for C#C[C@]1(O)CC[C@H]2[C@@H]3CCC4=CC(=O)CC[C@@H]4[C@H]3CC[C@@]21C [Norethisterone] here?
**A.** 7
